Broadly, the IC50 is the concentration at which inhibition is half-maximal.

The structures appear in SMILES notation.

In test [1] the target is human CYP4A11 (Homo sapiens (Human), UniProt Q02928). The test is described as follows: Inhibition test against 20-HETE producing enzyme CYP4A11 (luciferine derivative, luminescence). It is filed as biochemical. How it is done:
(§1) (1) Inhibition Test for Each Compound of the Present Invention Against 20-HETE Producing Enzymes (CYP4F2 and CYP4A11)
(§2) In the CYP4F2 inhibition test, the reaction solution containing each compound [final concentration of 50 mM, KPO4 (pH 7.4), 2.5 μM luciferine derivative, and 1 mM NADPH] was added to an Escherichia coli membrane fraction (100 μg/mL protein) in which human CYP4F2 had been expressed. In the CYP4A11 inhibition test, the reaction solution containing each compound [final concentration of 100 mM, Tris-HCl (pH 7.5), 60 μM luciferine derivative, 1.3 mM NADP^+, 3.3 mM Glucose 6-Phosphate, 3.3 mM MgCl2, and 0.4 U/mL Glucose 6-Phosphate dehydrogenase] was added to an Escherichia coli membrane fraction (100 μg/mL protein) in which human CYP4A11 had been expressed. Following this, the membrane fraction was left to stand at room temperature for 60 minutes to perform an enzymatic reaction. After the reaction, a luciferine detection reagent was added, and the luminescence value was measured using a plate reader. By using that value, the percent inhibition of 20-HETE producing enzyme (%) was calculated according to the equation described below, and the 50% inhibitory concentration (IC50 value) for each compound was calculated. Percent inhibition of 20-HETE producing enzyme (%)=[1−(A−B)/(C−B)]*100
(§3) A: Luminescence value with addition of compound
(§4) B: Luminescence value without addition of compound and enzyme

The target in test [2] is human CYP4F2 (Homo sapiens (Human), UniProt P78329). The test is described as follows: Inhibition test against 20-HETE producing enzyme CYP4F2 (luciferine derivative, luminescence). The format is biochemical. How it is done: as §1, §2, §3, §4
Sequence of human CYP4F2 (P78329 5-520): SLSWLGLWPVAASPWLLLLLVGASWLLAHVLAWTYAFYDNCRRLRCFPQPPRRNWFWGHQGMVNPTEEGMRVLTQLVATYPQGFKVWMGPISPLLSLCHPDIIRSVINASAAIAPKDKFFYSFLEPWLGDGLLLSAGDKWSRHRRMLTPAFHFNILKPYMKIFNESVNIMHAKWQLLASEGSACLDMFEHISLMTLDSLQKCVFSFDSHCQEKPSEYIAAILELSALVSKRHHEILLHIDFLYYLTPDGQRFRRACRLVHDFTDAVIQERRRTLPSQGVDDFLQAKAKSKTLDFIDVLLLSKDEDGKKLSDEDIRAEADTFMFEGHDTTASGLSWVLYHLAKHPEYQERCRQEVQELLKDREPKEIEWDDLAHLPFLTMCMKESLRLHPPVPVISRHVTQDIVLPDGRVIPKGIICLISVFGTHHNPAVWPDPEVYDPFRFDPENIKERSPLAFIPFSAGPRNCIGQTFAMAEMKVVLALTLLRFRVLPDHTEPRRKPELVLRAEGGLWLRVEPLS
Where [3] appears, read: E. coli membrane fraction expressing human CYP4A11, 60 μM luciferine derivative, room temperature 60 minutes.
[4] abbreviates: E. coli membrane fraction expressing human CYP4F2, 2.5 μM luciferine derivative, room temperature 60 minutes.
The mark [5] stands for this setting: human CYP4A11, luciferine derivative, luminescence.
The mark [6] stands for this setting: human CYP4F2, luciferine derivative, luminescence.

Sequence of human CYP4A11 (Q02928 5-519): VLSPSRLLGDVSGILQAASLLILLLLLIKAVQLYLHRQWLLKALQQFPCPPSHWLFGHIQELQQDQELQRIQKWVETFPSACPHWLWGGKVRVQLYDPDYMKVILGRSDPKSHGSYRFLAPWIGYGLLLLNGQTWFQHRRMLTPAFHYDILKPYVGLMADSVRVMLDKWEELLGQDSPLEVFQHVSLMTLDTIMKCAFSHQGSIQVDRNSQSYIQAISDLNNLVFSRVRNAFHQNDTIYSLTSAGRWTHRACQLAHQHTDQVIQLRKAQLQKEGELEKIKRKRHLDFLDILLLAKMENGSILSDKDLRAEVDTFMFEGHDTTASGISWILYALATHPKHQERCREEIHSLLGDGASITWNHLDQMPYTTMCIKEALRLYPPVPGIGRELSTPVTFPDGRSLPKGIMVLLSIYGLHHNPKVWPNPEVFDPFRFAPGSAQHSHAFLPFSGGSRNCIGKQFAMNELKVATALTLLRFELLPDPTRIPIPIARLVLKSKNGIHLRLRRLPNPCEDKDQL

Regarding `CC(C)(CCCOc1ccc(-c2ccn[nH]2)nc1)CC(=O)O` [Example 1-60], the results for the IC50 in test [1] (setting [3]) and in test [2] (setting [4]) were 38 nM and 31000 nM, respectively.
Regarding `O=C(NC1(C(=O)O)CCOCC1)c1cccc(COc2ccc(-c3ccn[nH]3)nc2)c1` [Example 45-13], the results for the IC50 in test [1] (setting [5]) and in test [2] (setting [6]) were 240 nM and 6800 nM, respectively.
For `O=C(O)c1cc(COc2ccc(-c3ccn[nH]3)nc2)ccc1F` [Example 22-15], the figures for the IC50 in test [1] (setting [3]) and in test [2] (setting [4]) were 92 nM and 14000 nM, respectively.
As for `O=C(O)[C@H]1CCc2ccc(COc3ccc(-c4ccn[nH]4)nc3)cc2C1` [Example 69-1-2], the results for the IC50 in test [1] (setting [5]) and in test [2] (setting [6]) were 25 nM and 200 nM, respectively.
On to `CC(C)(C(=O)O)n1ccc(CCCCOc2ccc(-c3ccn[nH]3)nc2)n1` [Example 8-14], for which the figures for the IC50 in test [1] (setting [3]) and in test [2] (setting [4]) were 68 nM and 11000 nM, respectively.
As for `CC(C)(CC(=O)N1CCC(CCCOc2ccc(-c3ccn[nH]3)nc2)CC1)C(=O)O` [Example 1-31], the IC50 in test [1] (setting [3]) stood at 1700 nM; in test [2] (setting [4]), 160 nM.
The like results for `O=C(O)[C@H]1CC[C@H](c2cccc(COc3ccc(-c4ccn[nH]4)nc3)c2)CC1` [Example 8-2, trans-4-[3-[[6-(1H-Pyrazol-5-yl)-3-pyridinyl]oxymethyl]phenyl]-1-cyclohexanecarboxylic Acid] were, in that order, 19 nM and 6500 nM.
The like results for `O=C(O)Cc1cccc(COc2ccc(-c3cnco3)nc2)c1` [Example 40-1, 2-[3-[[6-(5-Oxazolyl)-3-pyridinyl]oxymethyl]phenyl]acetic Acid] were, in that order, 9.9 nM and 28000 nM.
In the case of `O=C(O)[C@@H]1CCc2ccc(CCOc3ccc(-c4ccn[nH]4)nc3)cc2O1` [Example 71-22-2], the IC50 in test [1] (setting [5]) is 1000 nM; in test [2] (setting [6]) it was 160 nM.
The like results for `CCC(OCCCCCCCOc1ccc(-c2ccn[nH]2)nc1)C(=O)O` (stereo not shown) [Example 71-1, 2-[7-[6-(1H-Pyrazol-5-yl)pyridin-3-yl]oxyheptoxy]butanoic Acid] were, in that order, 110 nM and 140 nM.
For the compound `Cc1cc(COc2ccc(-c3ccn[nH]3)nc2)ccc1C(=O)O` [Example 25-1, 2-Methyl-4-[[6-(1H-pyrazol-5-yl)-3-pyridinyl]oxymethyl]benzoic Acid], the IC50 was 33 nM in test [1] (setting [3]) and 16000 nM in test [2] (setting [4]).
Take `O=C(O)COCCCCCCCOc1ccc(-c2ccn[nH]2)nc1` [Example 71-3]: the IC50 stood at 230 nM in test [1] (setting [5]) and 320 nM in test [2] (setting [6]).
Turning to `O=C(O)Cn1ccc(CCCCOc2ccc(-c3ccn[nH]3)nc2)cc1=O` [Example 8-15], the concentration for half-maximal inhibition (IC50) in test [1] (setting [3]) was 530 nM; in test [2] (setting [4]), 1400 nM.
Consider `O=C(O)[C@@H]1CCCN(S(=O)(=O)c2cccc(COc3ccc(-c4ccn[nH]4)nc3)c2)C1` [Example 69-4-1], for which the IC50 came out at 27 nM in test [1] (setting [5]) and 86 nM in test [2] (setting [6]).
Regarding `CC(=O)N1CC(O)(c2cccc(COc3ccc(-c4ccn[nH]4)nc3)c2)C1` [Example 52-2], the IC50 in test [1] (setting [3]) was determined as 520 nM; in test [2] (setting [4]), 50 nM.
Turning to `O=C(O)[C@]12CC3C[C@H](C1)[C@@H](COc1ccc(-c4ccn[nH]4)nc1)[C@@H](C3)C2` [Example 2-2, cis-4-[[6-(1H-Pyrazol-5-yl)-3-pyridinyl]oxymethyl]-1-adamantanecarboxylic Acid], the IC50 in test [1] (setting [3]) is 130 nM; in test [2] (setting [4]), > 50000 nM.
With `NC(=O)c1cc(COc2ccc(-c3ccn[nH]3)nc2)ccn1` [Example 44-7, 4-[[6-(1H-Pyrazol-5-yl)-3-pyridinyl]oxymethyl]-2-pyridinecarboxamide], the IC50 is 3800 nM in test [1] (setting [5]) and 85 nM in test [2] (setting [6]).
Take `O=C(CCc1cccc(COc2ccc(-c3ccn[nH]3)nc2)c1)N1CCCC1` [Example 42-13]: the IC50 in test [1] (setting [3]) stood at 150 nM; in test [2] (setting [4]), 15 nM.
The like results for `O=C(O)CCCc1cccc(CCCOc2ccc(-c3ccn[nH]3)nc2)c1` [Example 30-4] were, in that order, 140 nM and 350 nM.
Turning to `O=C(O)C1(CCCCCCCCOc2ccc(-c3ccn[nH]3)nc2)CCS(=O)(=O)CC1` [Example 72-6], the results for the IC50 in test [1] (setting [5]) and in test [2] (setting [6]) were 270 nM and 9.4 nM, respectively.
Take `O=C(O)CCCc1cccc(CCOc2ccc(-c3ccn[nH]3)nc2)c1` [Example 4-1, 4-[3-[2-[[6-(1H-Pyrazol-5-yl)-3-pyridinyl]oxy]ethyl]phenyl]butanoic Acid]: the IC50 was 22 nM in test [1] (setting [3]) and 830 nM in test [2] (setting [4]).
The like results for `CC(C)(CCc1cccc(COc2ccc(-c3ccn[nH]3)nc2)n1)C(=O)O` [Example 1-39] were, in that order, 420 nM and 9800 nM.
The like results for `O=C(O)c1cccc(S(=O)(=O)N2CCC[C@@H](COc3ccc(-c4ccn[nH]4)nc3)C2)c1` [Example 1-37] were, in that order, 21 nM and 94 nM.
Consider `O=C(O)C1CC1c1cc(F)cc(CCOc2ccc(-c3ccn[nH]3)nc2)c1` (single isomer, unassigned) [Example 74-10], for which the IC50 in test [1] (setting [5]) came to 56 nM; in test [2] (setting [6]), 2600 nM.
As to `CN(C)C(=O)N1CCC(O)(c2cccc(COc3ccc(-c4ccn[nH]4)nc3)c2)CC1` [Example 51-2], the values for the IC50 in test [1] (setting [3]) and in test [2] (setting [4]) were 310 nM and 3.5 nM, respectively.
The like results for `CC(C)(CCCCOc1ccc(-c2ccn[nH]2)nc1)C(=O)O` [Example 1-59] were, in that order, 42 nM and 17000 nM.
The like results for `O=C(O)c1ccccc1CCOc1ccc(-c2ccn[nH]2)nc1` [Example 1-7] were, in that order, 2400 nM and 11000 nM.
As for `CN(C(=O)Cc1cccc(COc2ccc(-c3ccn[nH]3)nc2)c1)S(C)(=O)=O` [Example 44-4], the results for the IC50 in test [1] (setting [5]) and in test [2] (setting [6]) were 410 nM and 290 nM, respectively.
Regarding `O=C(O)C1CN(S(=O)(=O)c2cccc(COc3ccc(-c4ccn[nH]4)nc3)c2)CCO1` (stereo not shown) [Example 22-12], the half-maximal inhibitory concentration (IC50) in test [1] (setting [3]) was determined as 53 nM; in test [2] (setting [4]), 2000 nM.
The like results for `CN(C)C(=O)CCc1cccc(COc2ccc(-c3ccn[nH]3)nc2)c1` [Example 42-9] were, in that order, 67 nM and 76 nM.
For `O=C(CCc1cccc(COc2cnc(-c3ccn[nH]3)c(F)c2)c1)NC1COC1` [Example 42-20], the IC50 was 76 nM in test [1] (setting [5]) and 11 nM in test [2] (setting [6]).
Take `CC(C)(COc1ccc(CCOc2ccc(-c3ccn[nH]3)nc2)cn1)C(=O)O` [Example 71-33]: the IC50 in test [1] (setting [5]) is 1600 nM; in test [2] (setting [6]), 600 nM.
Consider `OC1(c2cccc(COc3ccc(-c4ccn[nH]4)nc3)c2)CCC1` [Example 27-3], for which the IC50 is 120 nM in test [1] (setting [3]) and 350 nM in test [2] (setting [4]).
Consider `CNS(=O)(=O)c1cccc(COc2ccc(-c3ccn[nH]3)nc2)c1` [Example 23-1, N-Methyl-3-[[6-(1-H-pyrazol-5-yl)-3-pyridinyl]oxymethyl]benzenesulfonamide], for which the IC50 in test [1] (setting [3]) was 36 nM; in test [2] (setting [4]), 220 nM.
Consider `O=C(O)c1cnn(CCCCOc2ccc(-c3ccn[nH]3)nc2)c1` [Example 15-3], for which the IC50 is 130 nM in test [1] (setting [3]) and 6300 nM in test [2] (setting [4]).
As to `O=C(O)C1COc2cc(CCOc3ccc(-c4ccn[nH]4)nc3)ccc2C1` (stereo not shown) [Example 71-9], the IC50 in test [1] (setting [5]) turned out to be 310 nM; in test [2] (setting [6]), 870 nM.
Turning to `O=C(O)c1cccc(CCCCOc2ccc(-c3ccn[nH]3)nc2)c1` [Example 1-19], the IC50 in test [1] (setting [3]) came to 9.5 nM; in test [2] (setting [4]), 220 nM.
In the case of `O=C(O)c1ccccc1-c1cccc(COc2ccc(-c3ccn[nH]3)nc2)c1` [Example 8-4], the IC50 in test [1] (setting [3]) is 250 nM; in test [2] (setting [4]), 4300 nM.
The like results for `O=C(O)Cc1cccc(CCOc2ccc(-c3ccn[nH]3)nc2)c1` [Example 1-14] were, in that order, 21 nM and 7800 nM.
As to `CC(C)(COc1cccc(COc2ccc(-c3ccn[nH]3)nc2)n1)C(=O)O` [Example 75-6], the IC50 came out at 180 nM in test [1] (setting [5]) and 1700 nM in test [2] (setting [6]).
Regarding `CS(=O)(=O)NC(=O)CCCCCOc1ccc(-c2ccn[nH]2)nc1` [Example 54-1, N-Methylsulfonyl-6-[[6-(1H-pyrazol-5-yl)-3-pyridinyl]oxy]hexanamide], the IC50 came to 70 nM in test [1] (setting [3]) and 21000 nM in test [2] (setting [4]).
The like results for `O=C(O)c1ncc(CCCCOc2ccc(-c3ccn[nH]3)nc2)cn1` [Example 29-3] were, in that order, 380 nM and 84 nM.
The like results for `O=C(O)CCCCCCCCCOc1ccc(-c2ccn[nH]2)nc1` [Example 1-52] were, in that order, 44 nM and 41 nM.
The like results for `O=C(O)c1ccc(COc2ccc(-c3ccn[nH]3)nc2)cc1F` [Example 22-18] were, in that order, 35 nM and 18000 nM.
Take `O=C(O)[C@H]1CCCN1C(=O)c1cccc(COc2ccc(-c3ccn[nH]3)nc2)c1` [Example 45-35]: the figures for the 50% inhibitory concentration (IC50) in test [1] (setting [5]) and in test [2] (setting [6]) were 3200 nM and 13000 nM, respectively.
Regarding `O=C(O)CCc1cccc(CCOc2ccc(-c3ccn[nH]3)nc2)c1` [Example 1-16], the results for the IC50 in test [1] (setting [3]) and in test [2] (setting [4]) were 36 nM and 1100 nM, respectively.
The like results for `O=C(O)c1ccnc(-c2cccc(COc3ccc(-c4ccn[nH]4)nc3)c2)n1` [Example 22-6] were, in that order, 110 nM and 3100 nM.

The record behind these values is US11365192B2, “Pyridine compound substituted with azole” (TAISHO PHARMACEUTICAL CO., LTD., priority 2017, dated 2022).
